In paper PMC10743905, “Design, Synthesis, and In Vitro and In Vivo Bioactivity Studies of Hydrazide–Hydrazones of 2,4-Dihydroxybenzoic Acid” (International Journal of Molecular Sciences, 2023):
Values after ≈ are worked out from the molar mass of the structure shown.

What follows are molecules tested on Bordetella bronchiseptica ATCC 4617 (assay: Broth microdilution MIC/MBC). Details: not given.
Format: cell-based
Procedure, shortened: (§1)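 MICs were determined by broth microdilution using two-fold compound dilutions (final 1000-0.488 µg/ml) in Mueller-Hinton broth for bacteria or RPMI 1640 with MOPS for yeasts. Inocula were 0.5 McFarland suspensions in 0.85% NaCl, following EUCAST/CLSI guidelines; compounds were dissolved in DMSO.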

SMILES | MBC/MIC
CCCc1ccc(/C=N/NC(=O)c2ccc(O)cc2O)cc1 [Compound 13, 2,4-dihydroxy-N-[(4-propylphenyl)methylidene]benzohydrazide] | > 1
O=C(N/N=C/c1cc(I)cc(I)c1O)c1ccc(O)cc1O [Compound 18, 2,4-dihydroxy-N-[(2-hydroxy-3,5-diiodophenyl)methylidene]benzohydrazide] | > 2

Same assay, conditions: ATCC4617

SMILES | MBC | MIC
CCCc1ccc(/C=N/NC(=O)c2ccc(O)cc2O)cc1 [Compound 13, 2,4-dihydroxy-N-[(4-propylphenyl)methylidene]benzohydrazide] | > 1000 mg/L | 1000 mg/L (≈ 3350 µM)
O=C(N/N=C/c1cc(I)cc(I)c1O)c1ccc(O)cc1O [Compound 18, 2,4-dihydroxy-N-[(2-hydroxy-3,5-diiodophenyl)methylidene]benzohydrazide] | > 1000 mg/L | 500 mg/L (≈ 954 µM)

The molecules below were run on Escherichia coli ATCC 25922 (assay: Broth microdilution MIC/MBC). Details: not given.
Format: cell-based
Procedure, shortened: as §1

SMILES | MBC/MIC
CCCc1ccc(/C=N/NC(=O)c2ccc(O)cc2O)cc1 [Compound 13, 2,4-dihydroxy-N-[(4-propylphenyl)methylidene]benzohydrazide] | > 1
O=C(N/N=C/c1cc(I)cc(I)c1O)c1ccc(O)cc1O [Compound 18, 2,4-dihydroxy-N-[(2-hydroxy-3,5-diiodophenyl)methylidene]benzohydrazide] | > 2

Same assay, conditions: ATCC25922

SMILES | MBC | MIC
CCCc1ccc(/C=N/NC(=O)c2ccc(O)cc2O)cc1 [Compound 13, 2,4-dihydroxy-N-[(4-propylphenyl)methylidene]benzohydrazide] | > 1000 mg/L | 1000 mg/L (≈ 3350 µM)
O=C(N/N=C/c1cc(I)cc(I)c1O)c1ccc(O)cc1O [Compound 18, 2,4-dihydroxy-N-[(2-hydroxy-3,5-diiodophenyl)methylidene]benzohydrazide] | > 1000 mg/L | 500 mg/L (≈ 954 µM)

These molecules were tested on Enterococcus faecalis ATCC 29212 (assay: Broth microdilution MIC/MBC). Details: not given.
Format: cell-based
Procedure, shortened: as §1

SMILES | MBC/MIC
CCCc1ccc(/C=N/NC(=O)c2ccc(O)cc2O)cc1 [Compound 13, 2,4-dihydroxy-N-[(4-propylphenyl)methylidene]benzohydrazide] | > 1
O=C(N/N=C/c1cc(I)cc(I)c1O)c1ccc(O)cc1O [Compound 18, 2,4-dihydroxy-N-[(2-hydroxy-3,5-diiodophenyl)methylidene]benzohydrazide] | 4

Same assay, conditions: ATCC29212, read-out: MBC

SMILES | MBC
CCCc1ccc(/C=N/NC(=O)c2ccc(O)cc2O)cc1 [Compound 13, 2,4-dihydroxy-N-[(4-propylphenyl)methylidene]benzohydrazide] | > 1000 mg/L
O=C(N/N=C/c1cc(I)cc(I)c1O)c1ccc(O)cc1O [Compound 18, 2,4-dihydroxy-N-[(2-hydroxy-3,5-diiodophenyl)methylidene]benzohydrazide] | 15.6 mg/L (≈ 29.8 µM)

Same assay, conditions: ATCC29212, read-out: MIC

SMILES | MIC
CCCc1ccc(/C=N/NC(=O)c2ccc(O)cc2O)cc1 [Compound 13, 2,4-dihydroxy-N-[(4-propylphenyl)methylidene]benzohydrazide] | 1000 mg/L (≈ 3350 µM)
O=C(N/N=C/c1cc(I)cc(I)c1O)c1ccc(O)cc1O [Compound 18, 2,4-dihydroxy-N-[(2-hydroxy-3,5-diiodophenyl)methylidene]benzohydrazide] | 3.91 mg/L (≈ 7.46 µM)

What follows are molecules tested on Bacillus cereus ATCC 10876 (assay: Broth microdilution MIC/MBC). Details: not given.
Format: cell-based
Procedure, shortened: as §1

SMILES | MBC/MIC | MIC
CCCc1ccc(/C=N/NC(=O)c2ccc(O)cc2O)cc1 [Compound 13, 2,4-dihydroxy-N-[(4-propylphenyl)methylidene]benzohydrazide] | > 1 | 
O=C(N/N=C/c1cc(I)cc(I)c1O)c1ccc(O)cc1O [Compound 18, 2,4-dihydroxy-N-[(2-hydroxy-3,5-diiodophenyl)methylidene]benzohydrazide] | 4 | 3.91 mg/L (≈ 7.46 µM)

Same assay, conditions: ATCC10876

SMILES | MBC
CCCc1ccc(/C=N/NC(=O)c2ccc(O)cc2O)cc1 [Compound 13, 2,4-dihydroxy-N-[(4-propylphenyl)methylidene]benzohydrazide] | > 1000 mg/L
O=C(N/N=C/c1cc(I)cc(I)c1O)c1ccc(O)cc1O [Compound 18, 2,4-dihydroxy-N-[(2-hydroxy-3,5-diiodophenyl)methylidene]benzohydrazide] | 15.6 mg/L (≈ 29.8 µM)

Same assay, conditions: ATCC10876, read-out: MIC

SMILES | MIC
CCCc1ccc(/C=N/NC(=O)c2ccc(O)cc2O)cc1 [Compound 13, 2,4-dihydroxy-N-[(4-propylphenyl)methylidene]benzohydrazide] | 1000 mg/L (≈ 3350 µM)
O=C(N/N=C/c1cc(I)cc(I)c1O)c1ccc(O)cc1O [Compound 18, 2,4-dihydroxy-N-[(2-hydroxy-3,5-diiodophenyl)methylidene]benzohydrazide] | 3.91 mg/L (≈ 7.46 µM)

These molecules were tested on Klebsiella pneumoniae ATCC 13883 (assay: Broth microdilution MIC/MBC). Details: not given.
Format: cell-based
Procedure, shortened: as §1

SMILES | MBC/MIC
CCCc1ccc(/C=N/NC(=O)c2ccc(O)cc2O)cc1 [Compound 13, 2,4-dihydroxy-N-[(4-propylphenyl)methylidene]benzohydrazide] | > 1
O=C(N/N=C/c1cc(I)cc(I)c1O)c1ccc(O)cc1O [Compound 18, 2,4-dihydroxy-N-[(2-hydroxy-3,5-diiodophenyl)methylidene]benzohydrazide] | > 2

Same assay, conditions: ATCC13883

SMILES | MBC | MIC
CCCc1ccc(/C=N/NC(=O)c2ccc(O)cc2O)cc1 [Compound 13, 2,4-dihydroxy-N-[(4-propylphenyl)methylidene]benzohydrazide] | > 1000 mg/L | 1000 mg/L (≈ 3350 µM)
O=C(N/N=C/c1cc(I)cc(I)c1O)c1ccc(O)cc1O [Compound 18, 2,4-dihydroxy-N-[(2-hydroxy-3,5-diiodophenyl)methylidene]benzohydrazide] | > 1000 mg/L | 500 mg/L (≈ 954 µM)

Each molecule was assayed on Candida krusei ATCC 14243 (assay: Broth microdilution MIC/MFC). Details: not given.
Format: cell-based
Procedure, shortened: as §1

SMILES | MFC/MIC
O=C(N/N=C/c1cc(I)cc(I)c1O)c1ccc(O)cc1O [Compound 18, 2,4-dihydroxy-N-[(2-hydroxy-3,5-diiodophenyl)methylidene]benzohydrazide] | > 1

Same assay, conditions: Pichia kudriavzevii, ATCC14243, read-out: MFC

SMILES | MFC
O=C(N/N=C/c1cc(I)cc(I)c1O)c1ccc(O)cc1O [Compound 18, 2,4-dihydroxy-N-[(2-hydroxy-3,5-diiodophenyl)methylidene]benzohydrazide] | > 1000 mg/L

Same assay, conditions: Pichia kudriavzevii, ATCC14243, read-out: MIC

SMILES | MIC
CCCc1ccc(/C=N/NC(=O)c2ccc(O)cc2O)cc1 [Compound 13, 2,4-dihydroxy-N-[(4-propylphenyl)methylidene]benzohydrazide] | > 1000 mg/L
O=C(N/N=C/c1cc(I)cc(I)c1O)c1ccc(O)cc1O [Compound 18, 2,4-dihydroxy-N-[(2-hydroxy-3,5-diiodophenyl)methylidene]benzohydrazide] | 1000 mg/L (≈ 1910 µM)

Each molecule was assayed on Candida parapsilosis ATCC 22019 (assay: Broth microdilution MIC/MFC). Details: not given.
Format: cell-based
Procedure, shortened: as §1

SMILES | MFC/MIC
CCCc1ccc(/C=N/NC(=O)c2ccc(O)cc2O)cc1 [Compound 13, 2,4-dihydroxy-N-[(4-propylphenyl)methylidene]benzohydrazide] | > 1
O=C(N/N=C/c1cc(I)cc(I)c1O)c1ccc(O)cc1O [Compound 18, 2,4-dihydroxy-N-[(2-hydroxy-3,5-diiodophenyl)methylidene]benzohydrazide] | > 2

Same assay, conditions: Lodderomyces parapsilosis, ATCC22019, read-out: MFC

SMILES | MFC
CCCc1ccc(/C=N/NC(=O)c2ccc(O)cc2O)cc1 [Compound 13, 2,4-dihydroxy-N-[(4-propylphenyl)methylidene]benzohydrazide] | > 1000 mg/L
O=C(N/N=C/c1cc(I)cc(I)c1O)c1ccc(O)cc1O [Compound 18, 2,4-dihydroxy-N-[(2-hydroxy-3,5-diiodophenyl)methylidene]benzohydrazide] | > 1000 mg/L

Same assay, conditions: Lodderomyces parapsilosis, ATCC22019, read-out: MIC

SMILES | MIC
CCCc1ccc(/C=N/NC(=O)c2ccc(O)cc2O)cc1 [Compound 13, 2,4-dihydroxy-N-[(4-propylphenyl)methylidene]benzohydrazide] | 1000 mg/L (≈ 3350 µM)
O=C(N/N=C/c1cc(I)cc(I)c1O)c1ccc(O)cc1O [Compound 18, 2,4-dihydroxy-N-[(2-hydroxy-3,5-diiodophenyl)methylidene]benzohydrazide] | 500 mg/L (≈ 954 µM)

The molecules below were run on Bacillus subtilis ATCC 6633 (assay: Broth microdilution MIC/MBC). Details: not given.
Format: cell-based
Procedure, shortened: as §1

SMILES | MBC/MIC | MIC
CCCc1ccc(/C=N/NC(=O)c2ccc(O)cc2O)cc1 [Compound 13, 2,4-dihydroxy-N-[(4-propylphenyl)methylidene]benzohydrazide] | > 1 | 
O=C(N/N=C/c1cc(I)cc(I)c1O)c1ccc(O)cc1O [Compound 18, 2,4-dihydroxy-N-[(2-hydroxy-3,5-diiodophenyl)methylidene]benzohydrazide] | 2 | 1.95 mg/L (≈ 3.72 µM)

Same assay, conditions: ATCC6633

SMILES | MBC
CCCc1ccc(/C=N/NC(=O)c2ccc(O)cc2O)cc1 [Compound 13, 2,4-dihydroxy-N-[(4-propylphenyl)methylidene]benzohydrazide] | > 1000 mg/L
O=C(N/N=C/c1cc(I)cc(I)c1O)c1ccc(O)cc1O [Compound 18, 2,4-dihydroxy-N-[(2-hydroxy-3,5-diiodophenyl)methylidene]benzohydrazide] | 3.91 mg/L (≈ 7.46 µM)

Same assay, conditions: ATCC6633, read-out: MIC

SMILES | MIC
CCCc1ccc(/C=N/NC(=O)c2ccc(O)cc2O)cc1 [Compound 13, 2,4-dihydroxy-N-[(4-propylphenyl)methylidene]benzohydrazide] | 1000 mg/L (≈ 3350 µM)
O=C(N/N=C/c1cc(I)cc(I)c1O)c1ccc(O)cc1O [Compound 18, 2,4-dihydroxy-N-[(2-hydroxy-3,5-diiodophenyl)methylidene]benzohydrazide] | 1.95 mg/L (≈ 3.72 µM)
